Here are results for three compounds from patent publication US20060228384A1, “Control of biofilm with a biofilm inhibitor” (Sequoia Sciences, Inc., priority 2005, published 2006).

One data set has as its system Propionibacterium acnes. Particulars: each compound alone; cited from earlier work.
A further data set concerns biofilm. Briefly: Biofilm Inhibition Assay (compound library screening and analogs, methods as in Example 1). It counts as cell-based. The settings on record: tested as mentioned in Example 1. From the text: As is evident from the Biofilm Inhibiton Assay results presented in Table 1, one compound from Hit 39, SF382 confirmed biofilm inhibition after purification. […] Thus, the percentage of bacteria attached (within the biofilm) versus free-floating compared to untreated (negative) control has shifted toward free-floating upon addition of the treatment. Compound SF382 was particularly active, reducing the formation of biofilm by 50% compared to negative control. Compound SF382 is represented by structure (I).
(§1) In vitro biofilm inhibition was evaluated using a high-throughput method. This method uses standard pre-sterilized 96-well polystyrene microtiter plates. Each well was filled to a final volume of 200 μl. Initially, a concentrated compound solution is transferred into each well, except those which are used as controls, to achieve an appropriate testing concentration, typically 10 μg/ml. 150 μl of sterile media was then added, followed by 50 μl of bacterial inoculum. The plates were then placed on a shaker for 24 hours.
After the allotted growth time, the samples were removed from the shaker, rinsed and stained. The rinse involves first draining the wells, filling each well with PBS, and draining each well again. The rinse removes suspended cells from the system. […] The plate was then immediately analyzed with a microtiter plate reader. The samples and controls were analyzed in triplicate. […]

For data set [1], the system named is Pseudomonas aeruginosa PA01. Description: In vitro biofilm inhibition, 96-well plate, crystal violet (Example 1). It counts as cell-based. The settings on record: 10 μg/mL, 24 hours. On the procedure: as §1
(§2) After the allotted growth time, the samples were removed from the shaker, rinsed and stained. The rinse involves first draining the wells, filling each well with PBS, and draining each well again. The rinse removes suspended cells from the system. The biofilm was then stained with crystal violet for 20 minutes. The wells were each rinsed 4 times to remove any excess stain from the system and then eluted with 250 μl of ethanol. The elution step improves the detection of the stain during the analyses. The plate was then immediately analyzed with a microtiter plate reader. The samples and controls were analyzed in triplicate. Each plate contains negative and positive controls. The test samples were compared to the positive and negative controls to detect any reduction in the total amount of biofilm.

Data set [2] has as its system Staphylococcus epidermidis ATCC 29641. Described as above. Format: cell-based. The settings on record: ATCC29641, 10 μg/mL, 24 hours. On the procedure:
as §1, §2

For data set [3], the system named is Streptococcus mutans 25175. Briefly: Biofilm growth inhibition in polycarbonate tubes (Example 8). Format: cell-based. The settings on record: 80 μg/mL.
Data set [4] has as its system Pseudomonas aeruginosa strain PAO1. Description: Rotating disk reactor biofilm with tobramycin, CFU enumeration (Example 5). It counts as cell-based. The settings on record: palmitoleic acid approx. 100 μg/ml 24 h then tobramycin 100 μg/ml 2 h; combined treatment compared to tobramycin alone. The method, then: Biofilm formation of P. aeruginosa was evaluated using a standardized biofilm method with a rotating disk reactor (RDR). This method provides a model resembling the formation of biofilms in cystic fibrosis patients. The rotating disk reactor consists of a one-liter glass beaker fitted with a drain spout. The bottom of the vessel contains a magnetically driven rotor with six 1.27 cm diameter coupons constructed from polystyrene. The rotor consists of a star-head magnetic stir bar upon which a disk was affixed to hold the coupons. The vessel with the stir bar was placed on a stir plate and rotated to provide fluid shear. A nutrient solution (AB Trace Medium with 0.3 mM glucose, see Table 3 below for composition) was added through a stopper in the top of the reactor at a flow rate of 5 ml/min. The reactor volume was approximately 180 ml and varied slightly between reactors depending on the placement of the drain spout and the rotational speed of the rotor. At a volume of 180 ml, the residence time of the reactors was 36 minutes. The reactors were operated at room temperature (c.a. 26° C.).
For each test, two RDRs were operated in parallel with one receiving palmitoleic acid and the other serving as an untreated control. […] The plates were incubated for 24 hours at 37° C. before colony forming units (CFU) were determined.

Another data set relates to P. acnes. The settings on record: 125 ug/ml; cited from earlier work.
Data set [5] has as its system Gram-negative bacteria such as Pseudomonas aeruginosa, and Escherichia coli. Particulars: also P. acnes and several methicillin-resistant S. aureus strains; cited from earlier work.
The subject of the next data set is Escherichia coli JM109. Description: Biofilm formation and growth of wild-type E. coli JM109 (Example 2). The settings on record: compared to controls. It counts as cell-based. The method, then:
(§3) Biofilm inhibition experiments were conducted using an assay adapted from the reported protocol described in Pratt and Kolter, 1998, Molecular Microbiology, 30: 285-293; Li et al., 2001, J. Bacteriol., 183: 897-908. E. coli JM109 was grown in LB with or without 0.2% glucose in 96 well plates at 37° C. for two days without shaking. To quantify the biofilm mass, the suspension culture was poured out and the biofilm was washed three times with water. The biofilm was stained with 0.1% crystal violet for 20 minutes. The plates were then washed three times with water. OD reading at 540 nm was measured to quantify the biofilm mass at the bottom of the wells. Then 95% ethanol was added to dissolve the dye at the bottom and on the wall and the OD reading at 540 nm was measured to quantify the total biofilm mass. To study the overall effect of palmitoleic acid (3.6 mg/mL in 100% ethanol as stock solution), it was added with the inoculation and a time course of biofilm mass was measured. To study if the compound can cause biofilm removal, it was added one day after inoculation. Appropriate amounts of 100% ethanol were added to each sample to eliminate the effect of solvent. Four plates were prepared for each study to give a time course. Each condition had 3-4 replicates on each plate.

For the next data set, the system named is Gram-positive bacteria. The settings on record: cited from earlier work.
Data set [6] has as its system human hepatocellular carcinoma cells (HepG2). Description: In vitro cytotoxicity assessment (Example 7). It counts as cell-based. The settings on record: 30 or 60 μM, fluorometric detection of mitochondrial activity. The method, then:
Palmitoleic acid was tested to assess its cytotoxicity in human hepatocellular carcinoma cells (HepG2). Palmitoleic acid was tested at two concentrations of 30 and 60 μM in HepG2 cells in triplicate. Gross cytotoxicity was assayed by fluorometric detection in response to mitochondrial activity according to Nociari M M, et al. (1998) J. Immunol. Met. 213:157. Chlorpromazine was used as a positive control.

A further data set has as its system Escherichia coli UTI89. Description: Biofilm inhibition dose response, clinical strain (Example 4). It counts as cell-based. Particulars: LB media, compared to controls. The method, then: as §3
Dose response experiments were conducted on palmitoleic acid as described in Example 2 at 4, 8, 16, and 32 ug/mL with E. coli UT189 in LB media.

Data set [7] concerns methicillin-resistant Staphylococcus aureus 78-13607A. Briefly: Antibacterial effect, NCCLS procedures (Example 3). Format: cell-based. Particulars: studied at 32 μg/mL, read-out: MIC (minimal inhibitory concentration). The method, then: (§4) Using the appropriate NCCLS procedures, the antibacterial effect of palmitoleic acid on two strains of methicillin-resistant Staphylococcus aureus (ATCC 33591 and 78-13607A) was studied at 32 μg/mL.

Data set [8] has as its system methicillin-resistant Staphylococcus aureus ATCC 33591. Briefly: Antibacterial effect, NCCLS procedures (Example 3). It counts as cell-based. Particulars: ATCC33591, studied at 32 μg/mL, read-out: MIC (minimal inhibitory concentration). On the procedure: as §4
For data set [9], the system named is clinical strains of Staphylococcus aureus. The settings on record: 100 ug/ml; cited from earlier work.
Data set [10] can be described thus: In vivo PK study in rats (Example 9). The arrangement: species or system rat. Particulars: plasma. The method, then:
Two groups of animals were prepared to evaluate palmitoleic acid. Palmitoleic acid was evaluated for two dose routes consisting of 50 mg/kg (IV) and 100 mg/kg (Oral). Three animals were assigned to the IV route group and two animals were assigned to the oral route group. Prior to dosing, a baseline blood sample was taken from each animal. At time zero, a single bolus dose of palmitoleic acid in 10% Cremophor (BASF) was given to each animal. Blood samples were taken from each animal at 1, 4, 12 and 24 hours post dosing. All blood samples were processed to plasma.
The plasma samples were extracted by adding internal standard at a concentration of 10 μg/mL to achieve a final concentration of 2 μg/mL when reconstituted. A solution of 80:20 methanol:chloroform was used to cause protein precipitation. The samples were then vortexed and centrifuged. The supernatant was decanted and the solvent was evaporated off. Samples were then analyzed and quantified by LC/MS.

Data set [11] relates to Streptococcus sobrinus 6715. Description: Biofilm growth inhibition in polycarbonate tubes (Example 8). It counts as cell-based. Particulars: 80 μg/mL.

For orientation: inhibition means how much of the control response was suppressed. High values mean a strong effect, low ones a weak effect.

Structures are written as SMILES. Where only a bound is given, the exact number is not on record here.

For the compound `Cc1ncc([N+](=O)[O-])n1CCO` [metranidazole, reference compound], the “growth inhibition, compound alone” value in the data set with Propionibacterium acnes is given as “neither compound alone could effectively inhibit the growth”.
For `CCCCCCCCCCCCCCCC(=O)O` [palmitic acid], the “inhibition of the formation of biofilms” value with biofilm is on record as “does not inhibit the formation of biofilms”.
As for `CCCCCC/C=C\CCCCCCCC(=O)O` [palmitoleic acid], the results for the inhibition at 10 µg/mL in data set [1] and in data set [2] were 55% and 80%, respectively. The inhibition at 80 µg/mL in data set [3] and in [11] was more than 75% each time. Besides, in data set [4], the “reduction of CFUs” value was 60%. The growth inhibition entry is “failed to inhibit the growth” in the data set on P. acnes and “could not inhibit the growth” in [5]. Moreover, the “inhibition of total biofilm formation (reduction)” value in the data set with Escherichia coli JM109 (approximately 20 μM, added with inoculation) is listed as “about 60%”. The “inhibitory effect on growth” value with Escherichia coli JM109 is on record as “no inhibitory effect”. In the data set with Propionibacterium acnes, the “growth inhibition, compound alone” value is “neither compound alone could effectively inhibit the growth”. Moreover, the “typical minimal inhibitory concentration (MIC) value” in the data set with Gram-positive bacteria (growth of Gram-positive bacteria) is 10 to 20 µg/mL. Besides, in the data set on Gram-positive bacteria (palmitoleic acid and mupirocin against Gram-positive bacteria), the “synergistic effect with mupirocin” value is listed as “no synergistic effect was observed”. In [6], the cytotoxicity entry is on record as “not observed”. This compound returned an inhibition at 4 µg/mL with Escherichia coli UTI89 (4 μg/mL) of approximately 10%. For the same compound, the inhibition at 8 µg/mL in the data set with Escherichia coli UTI89 (8 μg/mL) is approximately 55%. In the data set with Escherichia coli UTI89 (16 μg/mL), this compound gave an inhibition at 16 µg/mL of approximately 70%. Further, the inhibition at 32 µg/mL in the data set with Escherichia coli UTI89 (32 μg/mL) was approximately 80%. Besides, the MIC in data set [7] and in [8] was more than 32 µg/mL each time. In data set [9], the inhibitory effect result is listed as “no inhibitory effect”. Also, the AUC was 123 µg/mL/h in [10] (IV 50 mg/kg single bolus in 10% Cremophor) and 219.71 µg/mL/h in data set [10] (oral 100 mg/kg single dose in 10% Cremophor).
